Here are results for 21 molecules from EP0403591B1, “CRF ANALOGS” (THE SALK INSTITUTE FOR BIOLOGICAL STUDIES, priority 1988, dated 1994).

Entries after “also recorded” stand apart in the source; their conditions may differ. Non-standard residues stand in square brackets, D forms with d. Residues, ends and D or L forms follow the SMILES beside them. No end group written: not given here. *: point of attachment. Nle = CCCC[C@H](N)C(=O)O; Bz = O=C(c1ccccc1)*

Assay [1] relates to cultured rat pituitary cells. Description: Secretion of ACTH and β-endorphin by cultured rat pituitary cells (procedure of Example III). The format is cell-based. Conditions: for secretion of ACTH and β-END-LI: testing by the general procedure of Example III (in vitro and in vivo); for EC50: stimulation of secretion of ACTH and β-endorphin by cultured rat pituitary cells, read-out: Half-maximal responses (concentration). On the procedure:
The synthetic peptide from Example I and synthetic oCRF are examined for their effects on the secretion of ACTH and β-endorphin in vitro and also in vivo.
The potency of synthetic oCRF to stimulate the secretion of ACTH and β-endorphin by cultured rat pituitary cells is measured using the procedure as generally set forth in Endocrinology, 91, 562 (1972). Half-maximal responses are observed at concentrations of the peptide very substantially less than the synthetic oCRF concentrations of about 250 picomolar which are needed to achieve this response. In vivo testing is carried out using the general procedure set forth in C. Rivier et al., Science, 218, 377 (1982), and biological potency is ascertained.

Assay [2] in a line: Lowering of blood pressure (in vivo testing, general procedure of Example III). Conditions: testing by the general procedure of Example III.
For assay [3] the following is noted: background statement; in mammals; cited from earlier work.
In a further assay the test system is ACTH and β-endorphin. Conditions: background statement; in vitro and in vivo; cited from earlier work.
For assay [4] the following is noted: background statement; cited from earlier work.
The conditions of assay [5]: administered into the ventricles, rats; cited from earlier work.

`CCCC[C@H](NC(=O)[C@H](Cc1c[nH]cn1)NC(=O)[C@H](CC(C)C)NC(=O)[C@H](CCCC)NC(=O)[C@H](CCC(=O)O)NC(=O)[C@H](CCCNC(=N)N)NC(=O)[C@H](CC(C)C)NC(=O)[C@H](CC(C)C)NC(=O)[C@H](Cc1c[nH]cn1)NC(=O)[C@H](Cc1ccccc1)NC(=O)[C@@H](NC(=O)[C@H](CC(C)C)NC(=O)[C@H](CC(=O)O)NC(=O)[C@H](CC(C)C)NC(=O)[C@H](CO)NC(=O)[C@@H](NC(=O)[C@@H]1CCCN1C(=O)[C@@H]1CCCN1)[C@@H](C)CC)[C@@H](C)O)C(=O)N[C@@H](C)C(=O)N[C@@H](CCCNC(=N)N)C(=O)N[C@@H](C)C(=O)N[C@@H](CCC(=O)O)C(=O)N[C@@H](CCC(N)=O)C(=O)N[C@@H](CCC(=O)O)C(=O)N[C@@H](C)C(=O)N[C@@H](CCC(=O)O)C(=O)N[C@@H](CCC(N)=O)C(=O)N[C@@H](C)C(=O)N[C@@H](CC(C)C)C(=O)N[C@@H](CC(C)C)C(=O)N[C@@H](CC(N)=O)C(=O)N[C@@H](CCCNC(=N)N)C(=O)N[C@@H](CC(N)=O)C(=O)N[C@@H](CC(C)C)C(=O)N[C@@H](CC(C)C)C(=O)N[C@@H](CCC(=O)O)C(=O)N[C@@H](CCC(=O)O)C(=O)N[C@@H](C)C(N)=O` [XVII] (H-PPISLDLTFHLLRE[Nle]LH[Nle]ARAEQEAEQALLNRNLLEEA-NH2): in assay [1], the “secretion of ACTH and β-END-LI” value is “stimulates the secretion of ACTH and β-END-LI”. For the same molecule, the “lowering of blood pressure” value in assay [2] is listed as “very significant lowering of blood pressure”.

Turning to `CC[C@H](C)[C@H](NC(=O)[C@H](CC(=O)O)NC(=O)[C@H](CC(C)C)NC(=O)[C@H](CC(C)C)NC(=O)[C@H](CCCCN)NC(=O)[C@H](CCCNC(=N)N)NC(=O)[C@H](CC(N)=O)NC(=O)[C@H](CO)NC(=O)[C@H](Cc1c[nH]cn1)NC(=O)[C@H](C)NC(=O)[C@H](CCC(N)=O)NC(=O)[C@H](CCC(N)=O)NC(=O)[C@H](C)NC(=O)[C@H](CC(C)C)NC(=O)[C@H](CCC(N)=O)NC(=O)[C@H](CC(=O)O)NC(=O)[C@H](C)NC(=O)[C@H](CCCCN)NC(=O)[C@@H](NC(=O)[C@H](CCSC)NC(=O)[C@H](CCC(=O)O)NC(=O)[C@H](CC(C)C)NC(=O)[C@@H](NC(=O)[C@H](CCC(=O)O)NC(=O)[C@H](CCCNC(=N)N)NC(=O)[C@H](CC(C)C)NC(=O)[C@H](CC(C)C)NC(=O)[C@H](Cc1c[nH]cn1)NC(=O)[C@H](Cc1ccccc1)NC(=O)[C@@H](NC(=O)[C@H](CC(C)C)NC(=O)[C@H](CC(=O)O)NC(=O)[C@H](CC(C)C)NC(=O)[C@H](CO)NC(=O)[C@@H](NC(=O)[C@@H]1CCCN1C(=O)[C@@H]1CCCN1C(=O)[C@H](CCC(=O)O)NC(=O)[C@H](CCC(N)=O)NC(=O)[C@@H](N)CO)[C@@H](C)CC)[C@@H](C)O)C(C)C)[C@@H](C)O)C(=O)N[C@@H](C)C(N)=O` [oCRF, ovine CRF], the EC50 in assay [1] was approximately 0.25 nM. The lowering blood pressure entry in assay [3] is “biological activity in lowering blood pressure; also recorded: substantially lower blood pressure for an extended time period”. The “secretion of ACTH and β-endorphin” value in the assay with ACTH and β-endorphin is “stimulating the secretion of ACTH and β-endorphin; also recorded: stimulate ACTH and β-endorphin activities in vitro and in vivo”. The gastric acid production result in assay [4] is “inhibits gastric acid production”.

For the molecule “Ac-PPISLDLTFHLLREVLHMARAEQLAEQAHSNRNLMEEI-NH2 [VII, [Acetyl-Pro⁴, His²⁰, Glu^29,40, Asn³⁶]-rCRF(4-41)]”, in assay [1], the “secretion of ACTH and β-END-LI” value is “stimulates the secretion of ACTH and β-END-LI”. Besides, the “lowering of blood pressure” value in assay [2] is reported as “very significant lowering of blood pressure to a greater extent than rCRF”.

Regarding “Bz-GEEPPISLDLT[Nle]HLLREVLHMARAEQLAQQAHSNRRLMEII-NH2 [VI, [Benzoyl-Gly¹, Nle¹², His²⁰, Arg³⁶]-rCRF]”, in assay [1], the “secretion of ACTH and β-END-LI” value is “stimulates the secretion of ACTH and β-END-LI”. Besides, the “lowering of blood pressure” value in assay [2] is “very significant lowering of blood pressure”.

For the molecule “CRF: corticotropin releasing factor, species not specified (SEEPPISLDLTFHLLREVLEMARAEQLAQQAHSNRKLMEII; ends and bridges not checked; UniProt P06850 154-194, looked up)”, the “activity and learning performance” value in assay [5] was “increases activity and improves learning performance”.

As for “Rat CRF (SEEPPISLDLTFHLLREVLEMARAEQLAQQAHSNRKLMEII; ends and bridges not checked; UniProt P01143 145-185, looked up) [rCRF, hentetracontapeptide; formula of human CRF is the same as that of rCRF]”, the lowering blood pressure result in assay [3] is “substantially lower blood pressure for an extended time period”. Moreover, in the assay with ACTH and β-endorphin, the “secretion of ACTH and β-endorphin” value was “stimulate ACTH and β-endorphin activities in vitro and in vivo”.

In the case of “SEEPPISLDLTFHLLREVLHMARAEGLAQQAHSNRKLMEII-NH2 [IV, [His²⁰, Gly²⁶)-rCRF]”, the “secretion of ACTH and β-END-LI” value in assay [1] is “stimulates the secretion of ACTH and β-END-LI”. The “lowering of blood pressure” value in assay [2] is given as “very significant lowering of blood pressure”.

For “SEEPPISLDLTFHLLREVLHMARAEQLAQQAHSNRKLMEII-NH2 [Example I, [His²⁰]-rCRF]”, the EC50 in assay [1] was less than 0.25 nM.

Consider “SEEPPISLDLTFHLLREVLHRARAEQLAQQALINRKLMEII-NH2 [IX, [His²⁰, Arg²¹, Leu³², Ile³³]-rCRF]”, for which, in assay [1], the “secretion of ACTH and β-END-LI” value is “stimulates the secretion of ACTH and β-END-LI”. In addition, the “lowering of blood pressure” value in assay [2] is reported as “very significant lowering of blood pressure to a greater extent than rCRF”.

“SEEPPISLDLTFHLLREVLH[Nle]ARAEQLAQQALINRKLMEEI-NH2 [VIII, [His²⁰, Nle²¹, Leu³², Ile³³, Glu⁴⁰]-rCRF]”: in assay [1], the “secretion of ACTH and β-END-LI” value is “stimulates the secretion of ACTH and β-END-LI”. Also, the “lowering of blood pressure” value in assay [2] was “very significant lowering of blood pressure to a greater extent than rCRF”.

Take “SEEPPISLELTFHLLREVLH[Nle]ARAEQLAEQAHINRKLMEII-NH2 [V, [Glu⁹, His²⁰, Nle²¹, Glu²⁹, Ile³³]-rCRF]”: the “secretion of ACTH and β-END-LI” value in assay [1] was “stimulates the secretion of ACTH and β-END-LI”. Besides, in assay [2], the “lowering of blood pressure” value is on record as “very significant lowering of blood pressure to a greater extent than rCRF”.

For the molecule “SQEPPISLDLTFHLLREMLHRAKAEQEAEQAAINRLLLEEA-NH2 [XIX]”, the “secretion of ACTH and β-END-LI” value in assay [1] was “stimulates the secretion of ACTH and β-END-LI”. The “lowering of blood pressure” value in assay [2] is “very significant lowering of blood pressure”.

For the molecule “SQEPPISLDLTFHLLREVLHMTKADQLAQQAHSNRNLLDIA-NH2 [XIV, [His²⁰, Asn³⁶]-oCRF]”, in assay [1], the “secretion of ACTH and β-END-LI” value is “stimulates the secretion of ACTH and β-END-LI”. Moreover, in assay [2], the “lowering of blood pressure” value is “very significant lowering of blood pressure”.

For the molecule “SQEPPISLDLTFHLLREVLH[Nle]TKADQLAQQAHSNRKLLDIA-NH2 [XV, [His²⁰, Nle²¹]-oCRF]”, in assay [1], the “secretion of ACTH and β-END-LI” value is “stimulates the secretion of ACTH and β-END-LI”. In addition, the “lowering of blood pressure” value in assay [2] was “very significant lowering of blood pressure”.

“SQEPPISLDLTFHLLRE[Nle]LH[Nle]AKAEQEAEQAALNRLLLEEA-NH2 [XI]”: the “secretion of ACTH and β-END-LI” value in assay [1] is “stimulates the secretion of ACTH and β-END-LI”. The “lowering of blood pressure” value in assay [2] was “very significant lowering of blood pressure”.

For “SQEPPISLDLTFHMLREMLHMAKMEQEAEQAALNRLLLEEA-NH2 [XVIII]”, in assay [1], the “secretion of ACTH and β-END-LI” value is “stimulates the secretion of ACTH and β-END-LI”. For the same molecule, the “lowering of blood pressure” value in assay [2] was “very significant lowering of blood pressure”.

Consider “SQEPPISLDLTFHMLREMLHRAKMEGEAEQALINRNLLEEA-NH2 [XIII]”, for which the “secretion of ACTH and β-END-LI” value in assay [1] was “stimulates the secretion of ACTH and β-END-LI”. Further, in assay [2], the “lowering of blood pressure” value is “very significant lowering of blood pressure”.

“SQEPPISLELTFHLLRE[Nle]LHRAKAEQEAEQAALNRLLLEEA-NH2 [X]”: the “secretion of ACTH and β-END-LI” value in assay [1] is “stimulates the secretion of ACTH and β-END-LI”. In addition, the “lowering of blood pressure” value in assay [2] is “very significant lowering of blood pressure”.

With “SQ[dY]PPISLDLTFHLLRE[Nle]LH[Nle]AKAGQEAEQAALNRLLLEEA-NH2 [XII]”, the “secretion of ACTH and β-END-LI” value in assay [1] was “stimulates the secretion of ACTH and β-END-LI”. The “lowering of blood pressure” value in assay [2] is on record as “very significant lowering of blood pressure”.

Consider Sauvagine, for which the lowering blood pressure result in assay [3] is listed as “biological activity in lowering blood pressure”. In addition, the “secretion of ACTH and β-endorphin” value with ACTH and β-endorphin was “stimulating the secretion of ACTH and β-endorphin”.

On to [D-Pro⁴, His²⁰]-oCRF(4-41) [XVI], for which the “secretion of ACTH and β-END-LI” value in assay [1] was “stimulates the secretion of ACTH and β-END-LI”. Moreover, in assay [2], the “lowering of blood pressure” value is given as “very significant lowering of blood pressure”.
